Where a name gives a salt, the structure may show the parent alone. Read-outs that look alike come from different tables or passages of the source.
How the values were obtained:
Format in all cases: biochemical
[1] = biological target: T1, human JAK1 (a.a. 837-1142) (Homo sapiens, UniProt P23458); assay: In vitro JAK kinase assay (HTRF, phosphorylation of a biotinylated peptide), JAK1; settings: read-out: JAK1 IC50
T1 construct: human JAK1 (a.a. 837-1142); His tag (N); made in house; host or cells: insect cells (baculovirus)
Method in brief: (§1)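 Kinase reactions ran at room temperature for 1 h with ATP matched per isoform (JAK1 90 μM, JAK2 30 μM, JAK3 3 μM). After an EDTA stop, the phosphorylated biotin-peptide was read by HTRF using Eu-Py20 and SA-APC after 40 min binding.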

[2] = biological target: T2, human JAK2 (a.a. 828-1132) (Homo sapiens, UniProt O60674); assay: In vitro JAK kinase assay (HTRF, phosphorylation of a biotinylated peptide), JAK2
T2 construct: JAK2 (a.a. 828-1132); His tag (N); made in house; host or cells: insect cells (baculovirus)
Method in brief: as §1

[3] = biological target: T3, human JAK3 (a.a. 781-1124) (Homo sapiens, UniProt P52333); assay: In vitro JAK kinase assay (HTRF, phosphorylation of a biotinylated peptide), JAK3
T3 construct: JAK3 (a.a. 781-1124); His tag (N); made in house; host or cells: insect cells (baculovirus)
Method in brief: as §1

[4] = biological target: TYK2 (Homo sapiens, UniProt P29597); assay: TYK2 kinase inhibition (Table A1)
[5] = biological target: T4, Recombinant Human Anaplastic Lymphoma Kinase (Homo sapiens, UniProt Q9UM73); assay: ALK HTRF kinase assay
T4 construct: purchased Invitrogen, Carlsbad, Calif
Method in brief: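 Readout was HTRF between a Eu-W1024 anti-phosphotyrosine antibody and streptavidin-APC bound to biotinylated peptide phosphorylated by recombinant human ALK. IC50 values came from a four-parameter logistic fit.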

[6] = compound at a concentration of 500 nM or 1 mM (not specified), cells shown as percentage
[7] = method AA1 (90 μM ATP) or AA2 (1000 μM ATP), not stated per value
[8] = method AA1 (30 μM ATP) or AA2 (1000 μM ATP), not stated per value
[9] = method AA1 (3 μM ATP) or AA2 (1000 μM ATP), not stated per value
[10] = compound at 500 nM or 1 mM, 90 μM ATP
[11] = percentage inhibition of the example compound at a concentration of 500 nM or 1 mM (not specified which)

T2 sequence (O60674 828-1132): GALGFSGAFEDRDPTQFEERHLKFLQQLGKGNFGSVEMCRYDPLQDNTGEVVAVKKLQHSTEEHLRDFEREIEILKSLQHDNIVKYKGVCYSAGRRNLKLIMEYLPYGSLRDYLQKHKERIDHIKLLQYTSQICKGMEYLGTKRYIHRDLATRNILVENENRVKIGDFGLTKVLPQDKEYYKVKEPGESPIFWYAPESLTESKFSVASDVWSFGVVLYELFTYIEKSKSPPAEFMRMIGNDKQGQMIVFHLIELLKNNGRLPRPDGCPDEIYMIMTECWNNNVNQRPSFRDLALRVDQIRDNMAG
T3 sequence (P52333 781-1124): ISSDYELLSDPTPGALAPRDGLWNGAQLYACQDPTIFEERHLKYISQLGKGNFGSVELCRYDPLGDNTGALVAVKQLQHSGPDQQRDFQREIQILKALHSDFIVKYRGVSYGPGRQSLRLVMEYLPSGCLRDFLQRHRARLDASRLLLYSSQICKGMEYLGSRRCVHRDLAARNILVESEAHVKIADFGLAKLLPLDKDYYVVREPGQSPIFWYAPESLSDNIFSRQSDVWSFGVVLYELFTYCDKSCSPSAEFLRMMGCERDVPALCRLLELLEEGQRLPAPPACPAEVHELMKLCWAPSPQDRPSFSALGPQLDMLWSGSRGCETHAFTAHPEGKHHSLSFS
T1 sequence (P23458 849-1154): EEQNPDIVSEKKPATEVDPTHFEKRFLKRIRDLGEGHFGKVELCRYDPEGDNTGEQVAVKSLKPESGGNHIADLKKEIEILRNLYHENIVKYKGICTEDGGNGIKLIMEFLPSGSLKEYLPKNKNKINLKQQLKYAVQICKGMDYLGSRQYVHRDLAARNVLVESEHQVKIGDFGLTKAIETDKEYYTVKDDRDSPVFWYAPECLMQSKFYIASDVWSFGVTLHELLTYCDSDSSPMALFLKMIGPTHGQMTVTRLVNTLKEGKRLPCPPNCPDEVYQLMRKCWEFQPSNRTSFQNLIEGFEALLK
TYK2, sequence (P29597 whole entry): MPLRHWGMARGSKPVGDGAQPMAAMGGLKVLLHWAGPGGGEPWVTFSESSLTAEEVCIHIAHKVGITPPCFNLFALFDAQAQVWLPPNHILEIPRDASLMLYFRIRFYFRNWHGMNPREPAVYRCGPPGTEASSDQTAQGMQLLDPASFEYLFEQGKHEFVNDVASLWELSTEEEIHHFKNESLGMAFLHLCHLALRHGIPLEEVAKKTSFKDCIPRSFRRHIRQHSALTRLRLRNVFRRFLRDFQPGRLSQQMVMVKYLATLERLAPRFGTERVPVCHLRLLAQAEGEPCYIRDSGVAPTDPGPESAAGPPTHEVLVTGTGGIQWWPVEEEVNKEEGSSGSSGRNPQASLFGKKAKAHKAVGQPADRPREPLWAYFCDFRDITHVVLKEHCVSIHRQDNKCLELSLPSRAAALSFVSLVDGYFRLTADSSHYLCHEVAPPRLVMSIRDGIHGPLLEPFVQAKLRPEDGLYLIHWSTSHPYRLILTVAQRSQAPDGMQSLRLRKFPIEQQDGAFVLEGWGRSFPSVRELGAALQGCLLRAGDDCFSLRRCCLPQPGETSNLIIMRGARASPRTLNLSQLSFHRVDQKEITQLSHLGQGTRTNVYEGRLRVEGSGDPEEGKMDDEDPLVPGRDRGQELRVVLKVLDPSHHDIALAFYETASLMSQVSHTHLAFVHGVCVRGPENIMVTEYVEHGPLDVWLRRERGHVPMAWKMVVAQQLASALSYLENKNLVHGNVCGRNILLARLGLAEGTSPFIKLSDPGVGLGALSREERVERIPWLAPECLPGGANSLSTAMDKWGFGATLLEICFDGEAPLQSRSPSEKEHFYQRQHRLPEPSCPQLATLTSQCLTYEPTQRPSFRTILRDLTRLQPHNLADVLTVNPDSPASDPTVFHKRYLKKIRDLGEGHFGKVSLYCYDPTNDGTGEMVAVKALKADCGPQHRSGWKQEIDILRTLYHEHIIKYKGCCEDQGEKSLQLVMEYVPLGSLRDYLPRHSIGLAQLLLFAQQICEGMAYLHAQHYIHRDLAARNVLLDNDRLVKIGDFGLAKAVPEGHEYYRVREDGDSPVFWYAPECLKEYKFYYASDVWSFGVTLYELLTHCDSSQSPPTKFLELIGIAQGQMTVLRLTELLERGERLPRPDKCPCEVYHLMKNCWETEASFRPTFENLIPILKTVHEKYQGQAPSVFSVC
T4 sequence (Q9UM73 19-1620): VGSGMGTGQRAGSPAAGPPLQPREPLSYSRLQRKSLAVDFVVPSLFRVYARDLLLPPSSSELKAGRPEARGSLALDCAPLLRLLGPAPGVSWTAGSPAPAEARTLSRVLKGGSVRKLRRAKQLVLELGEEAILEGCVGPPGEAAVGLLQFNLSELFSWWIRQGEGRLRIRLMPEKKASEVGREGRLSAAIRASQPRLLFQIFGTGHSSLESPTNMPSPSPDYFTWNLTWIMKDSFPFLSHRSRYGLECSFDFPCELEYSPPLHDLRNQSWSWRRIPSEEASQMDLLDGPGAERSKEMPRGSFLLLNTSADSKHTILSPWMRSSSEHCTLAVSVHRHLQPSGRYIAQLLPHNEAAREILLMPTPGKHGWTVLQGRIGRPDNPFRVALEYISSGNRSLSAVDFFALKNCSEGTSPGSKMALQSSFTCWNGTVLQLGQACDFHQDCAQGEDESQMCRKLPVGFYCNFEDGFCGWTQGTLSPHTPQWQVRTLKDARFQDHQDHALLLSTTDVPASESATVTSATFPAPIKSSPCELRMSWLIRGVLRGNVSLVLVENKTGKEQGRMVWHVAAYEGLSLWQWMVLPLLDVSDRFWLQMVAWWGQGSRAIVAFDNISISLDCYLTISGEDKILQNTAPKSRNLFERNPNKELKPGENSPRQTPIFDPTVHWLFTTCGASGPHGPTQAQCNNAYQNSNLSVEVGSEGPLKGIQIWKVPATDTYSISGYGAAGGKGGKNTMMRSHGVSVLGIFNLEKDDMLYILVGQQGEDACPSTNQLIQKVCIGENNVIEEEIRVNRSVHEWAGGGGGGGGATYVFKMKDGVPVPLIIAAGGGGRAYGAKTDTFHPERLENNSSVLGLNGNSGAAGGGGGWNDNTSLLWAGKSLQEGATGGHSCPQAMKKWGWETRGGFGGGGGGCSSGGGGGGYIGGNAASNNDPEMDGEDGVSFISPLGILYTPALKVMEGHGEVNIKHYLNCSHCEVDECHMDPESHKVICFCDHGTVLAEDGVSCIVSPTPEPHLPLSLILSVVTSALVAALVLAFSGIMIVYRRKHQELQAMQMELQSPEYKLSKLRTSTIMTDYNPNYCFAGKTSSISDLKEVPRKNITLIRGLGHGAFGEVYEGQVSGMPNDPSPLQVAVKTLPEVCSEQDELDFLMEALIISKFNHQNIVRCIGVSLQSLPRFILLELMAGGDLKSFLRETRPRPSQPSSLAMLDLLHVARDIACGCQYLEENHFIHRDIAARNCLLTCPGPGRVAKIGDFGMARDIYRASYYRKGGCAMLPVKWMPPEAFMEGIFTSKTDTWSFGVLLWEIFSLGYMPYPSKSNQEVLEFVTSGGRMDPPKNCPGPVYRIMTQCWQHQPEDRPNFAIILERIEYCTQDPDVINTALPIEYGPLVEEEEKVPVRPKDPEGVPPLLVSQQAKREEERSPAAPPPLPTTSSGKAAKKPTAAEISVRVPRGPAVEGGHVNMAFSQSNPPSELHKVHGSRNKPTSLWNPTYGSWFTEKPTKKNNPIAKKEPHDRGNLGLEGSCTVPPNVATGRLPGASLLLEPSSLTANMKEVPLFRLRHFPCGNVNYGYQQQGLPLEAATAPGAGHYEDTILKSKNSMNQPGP

Row | IC50 ([1]; Table B1) [µM] | IC50 ([2]; Table B1) [µM] | IC50 ([3]; Table B1) [µM] | IC50 ([4]; Table B1) [µM] | IC50 [1, 7] [µM] | IC50 [2, 8] [µM] | IC50 [3, 9] [µM] | IC50 [4] [µM] | ALK % of inhibition at a concentration of 500 nM or 1 mM [5, 10] [%] | SMILES | also measured
1 | 0.0073 | 0.0095 | 0.064 | 0.018 |  |  |  |  |  | O=C(NCCN1CCCC1=O)Nc1ccc2cc1CCc1cccc(c1)Nc1ncc(Cl)c(n1)N2 [Example B257, N-[6-Chloro-2,4,8,22-tetraazatetracyclo[14.3.1.1(3,7).1(9,13)]docosa-1(20),3(22),4,6,9(21),10,12,16,18-nonaen-12-yl]-N′-[2-(2-oxopyrrolidin-1-yl)ethyl]urea trifluoroacetate] | ALK % of inhibition at a concentration of 500 nM or 1 mM [5, 6]: 14%
2 | 0.0028 | 0.012 | 0.067 | 0.017 |  |  |  |  |  | CC(=O)N1CC[C@H](NC(=O)Nc2ccc3cc2CCc2cccc(c2)Nc2ncc(Cl)c(n2)N3)C1 [Example B168, N-[(3S)-1-Acetylpyrrolidin-3-yl]-N′-[6-chloro-2,4,8,22-tetraazatetracyclo[14.3.1.1(3,7).1(9,13)]docosa-1(20),3(22),4,6,9(21),10,12,16,18-nonaen-12-yl]urea trifluoroacetate] | ALK % of inhibition at a concentration of 500 nM or 1 mM [5, 6]: 21%
3 | 0.172 | > 0.4 | > 0.4 | > 0.4 |  |  |  |  |  | CN(Cc1ccc2cc1CCc1cncc(c1)Nc1ncc(Cl)c(n1)N2)CC1CCNCC1 [Example B339, 1-[6-Chloro-2,4,8,18,22-pentaazatetracyclo[14.3.1.1(3,7).1(9,13)]docosa-1(20),3(22),4,6,9(21),10,12,16,18-nonaen-12-yl]-N-methyl-N-(piperidin-4-ylmethyl)methanamine Tetrahydrochloride] | ALK % of inhibition at a concentration of 500 nM or 1 mM [5, 11]: 41%
4 | 0.014 | 0.09 | > 0.4 | 0.276 |  |  |  |  |  | Cc1cc(C(=O)N2CCC(CN(C)Cc3ccc4cc3CCc3cncc(c3)Nc3ncc(Cl)c(n3)N4)CC2)no1 [Example B344, 1-[6-Chloro-2,4,8,18,22-pentaazatetracyclo[14.3.1.1(3,7).1(9,13)]docosa-1(20),3(22),4,6,9(21),10,12,16,18-nonaen-12-yl]-N-methyl-N-({1-[(5-methylisoxazol-3-yl)carbonyl]piperidin-4-yl}methyl)methanamine tris(trifluoroacetate)] | ALK % of inhibition at a concentration of 500 nM or 1 mM [5, 11]: 43%
5 | 0.0077 | 0.06 | > 0.4 | 0.226 |  |  |  |  |  | Cc1oncc1S(=O)(=O)N1CCC(CN(C)Cc2ccc3cc2CCc2cncc(c2)Nc2ncc(Cl)c(n2)N3)CC1 [Example B342, 1-[6-Chloro-2,4,8,18,22-pentaazatetracyclo[14.3.1.1(3,7).1(9,13)]docosa-1(20),3(22),4,6,9(21),10,12,16,18-nonaen-12-yl]-N-methyl-N-({1-[(5-methylisoxazol-4-yl)sulfonyl]piperidin-4-yl}methyl)methanamine tris(trifluoroacetate)] | ALK % of inhibition at a concentration of 500 nM or 1 mM [5, 11]: 37%
6 | 0.07 | 0.13 | > 0.2 | > 0.2 |  |  |  |  |  | CN(Cc1ccc2cc1CCc1cncc(c1)Nc1ncc(Cl)c(n1)N2)C(=O)C1CCN(c2ncccn2)CC1 [Example B338, N-{[6-Chloro-2,4,8,18,22-pentaazatetracyclo[14.3.1.1(3,7).1(9,13)]docosa-1(20),3(22),4,6,9(21),10,12,16,18-nonaen-12-yl]methyl}-N-methyl-1-pyrimidin-2-ylpiperidine-4-carboxamide tris(trifluoroacetate)] | ALK % of inhibition at a concentration of 500 nM or 1 mM [5, 11]: 21%

More lines, now with the values behind:

Row | SMILES | IC50 ([1]; Table B1) [µM] | IC50 ([2]; Table B1) [µM] | IC50 ([3]; Table B1) [µM] | IC50 ([4]; Table B1) [µM] | IC50 [1, 7] [µM] | IC50 [2, 8] [µM] | IC50 [3, 9] [µM] | IC50 [4] [µM] | ALK % of inhibition at a concentration of 500 nM or 1 mM [5, 10] [%] | also measured
7 | O=C(Nc1ccc(Cl)cc1)c1cc2cc(c1)Nc1nc(ncc1Cl)Nc1cccc(c1)CC2 [Example B15, 6-Chloro-N-(4-chlorophenyl)-2,4,8,22-tetraazatetracyclo[14.3.1.1(3,7).1(9,13)]docosa-1(20),3(22),4,6,9(21),10,12,16,18-nonaene-11-carboxamide trifluoroacetate] | 0.16 | 0.111 | 0.365 | > 1 |  |  |  |  |  | IC50 ([5]; Table B1, cells without percent sign): > 1 µM
8 | COc1ccc(NC(=O)Nc2ccc3cc2CCc2cccc(c2)Nc2ncc(Cl)c(n2)N3)cc1 [Example B101, N-[6-Chloro-2,4,8,22-tetraazatetracyclo[14.3.1.1(3,7).1(9,13)]docosa-1(20), 3(22),4,6,9(21),10,12,16,18-nonaen-12-yl]-N′-(4-methoxyphenyl)urea trifluoroacetate] | 0.0045 | 0.01 | 0.026 | 0.019 |  |  |  |  |  | ALK % of inhibition at a concentration of 500 nM or 1 mM [5, 6]: 39%
9 | O=C(CC1CCN(c2ncccn2)CC1)Nc1ccc2cc1CCc1cncc(c1)Nc1ncc(Cl)c(n1)N2 [Example A172, N-[6-Chloro-2,4,8,18,22-pentaazatetracyclo[14.3.1.1(3,7).1(9,13)]docosa-1(20),3(22),4,6,9(21),10,12,16,18-nonaen-12-yl]-2-(1-pyrimidin-2-ylpiperidin-4-yl)acetamide tris(trifluoroacetate)] |  |  |  |  | 0.011 | 0.199 | > 1 | 0.237 | 28 | 
10 | Clc1cnc2nc1Nc1cccc(c1)OCCc1cc(cc(-c3cccnc3)c1)N2 [Example D26, 6-Chloro-19-pyridin-3-yl-14-oxa-2,4,8,23-tetraazatetracyclo[15.3.1.1(3,7).1(9,13)]tricosa-1(21),3(23),4,6,9(22),10,12,17,19-nonaene bis(trifluoroacetate)] |  |  |  |  |  |  |  |  |  | IC50 ([1]; Table D1): 0.0012 µM; IC50 ([2]; Table D1): 0.0006 µM; IC50 ([3]; Table D1): 0.0085 µM; IC50 ([4]; Table D1): 0.0027 µM; IC50 ([5]; Table D1, 90 μM ATP): 0.138 µM
11 | Cc1cc(C(=O)N2CCN(CC(=O)Nc3ccc4cc3CCc3cncc(c3)Nc3ncc(Cl)c(n3)N4)CC2)no1 [Example A119, N-[6-Chloro-2,4,8,18,22-pentaazatetracyclo[14.3.1.1(3,7).1(9,13)]docosa-1(20),3(22),4,6,9(21),10,12,16,18-nonaen-12-yl]-2-{4-[(5-methylisoxazol-3-yl)carbonyl]piperazin-1-yl}acetamide tris(trifluoroacetate)] |  |  |  |  | 0.0036 | 0.016 | 0.174 | 0.0086 | 15 | 
12 | O=C(NCc1ccccc1)Nc1cc2cc(c1)OCCSc1cccc(c1)Nc1nc(ncc1Cl)N2 [Example D66, N-Benzyl-N′-[6-chloro-17-oxa-14-thia-2,4,8,24-tetraazatetracyclo[16.3.1.1(3,7).1(9,13)]tetracosa-1(22),3(24),4,6,9(23),10,12,18,20-nonaen-20-yl]urea trifluoroacetate] |  |  |  |  |  |  |  |  |  | IC50 ([1]; Table D1): 0.0073 µM; IC50 ([2]; Table D1): 0.003 µM; IC50 ([3]; Table D1): 0.0096 µM; IC50 ([4]; Table D1): 0.0034 µM; IC50 ([5]; Table D1, 90 μM ATP): 0.77 µM
13 | CCNC(=O)N1CCC(C(=O)Nc2ccc3cc2CCc2cccc(c2)Nc2ncc(Cl)c(n2)N3)CC1 [Example A59, N(4)-[6-Chloro-2,4,8,22-tetraazatetracyclo[14.3.1.1(3,7).1(9,13)]docosa-1(20),3(22),4,6,9(21),10,12,16,18-nonaen-12-yl]-N(1)-ethylpiperidine-1,4-dicarboxamide trifluoroacetate] |  |  |  |  | 0.026 | 0.0069 | 0.019 | 0.015 | 39 | 
14 | O=C(Nc1ccccc1)c1cc2cc(c1)OCCSc1cccc(c1)Nc1nc(ncc1Cl)N2 [Example D50, 6-Chloro-N-phenyl-17-oxa-14-thia-2,4,8,24-tetraazatetracyclo[16.3.1.1(3,7).1(9,13)]tetracosa-1(22),3(24),4,6,9(23),10,12,18,20-nonaene-20-carboxamide trifluoroacetate] |  |  |  |  |  |  |  |  |  | IC50 ([1]; Table D1): 0.0073 µM; IC50 ([2]; Table D1): 0.0041 µM; IC50 ([3]; Table D1): 0.055 µM; IC50 ([4]; Table D1): 0.016 µM; IC50 ([5]; Table D1, 90 μM ATP): 1.5 µM
15 | O=C(CC1CCN(c2ccnc(F)c2)CC1)Nc1ccc2cc1CCc1cncc(c1)Nc1ncc(Cl)c(n1)N2 [Example A244, N-[6-Chloro-2,4,8,18,22-pentaazatetracyclo[14.3.1.1(3,7).1(9,13)]docosa-1(20),3(22),4,6,9(21),10,12,16,18-nonaen-12-yl]-2-[1-(2-fluoropyridin-4-yl)piperidin-4-yl]acetamide tris(trifluoroacetate)] |  |  |  |  | 0.03 | 0.171 | > 0.4 | 0.17 | 66 | 
16 | O=C(CC1CCN(C(=O)c2nccs2)CC1)Nc1ccc2cc1CCc1cncc(c1)Nc1ncc(Cl)c(n1)N2 [Example A133, N-[6-Chloro-2,4,8,18,22-pentaazatetracyclo[14.3.1.1(3,7).1(9,13)]docosa-1(20),3(22),4,6,9(21),10,12,16,18-nonaen-12-yl]-2-[1-(1,3-thiazol-2-ylcarbonyl)piperidin-4-yl]acetamide bis(trifluoroacetate)] |  |  |  |  | 0.0021 | 0.011 | 0.073 | 0.0055 | 32 | 

Reference: patent US8871753B2, “Macrocyclic compounds and their use as kinase inhibitors” (Incyte Corporation, priority 2008, dated 2014)
